Reference: ChEMBL document CHEMBL3817735 (J Med Chem, 2016)

What was measured:
Influenza A virus [1] = assay: Antiviral activity against Influenza A virus (A/California/04/2009(H1N1)) infected in dog AX4 cells preincubated for 1 hr followed by infection measured after 19 to 20 hrs by galactosidase-based fluorescence assay and peroxidase-based chromogenic assay; assay type: functional, organism-based
Influenza A virus [2] = assay: Antiviral activity against Influenza A virus (A/mallard/Hokkaido/24/2009(H5N1)) infected in MDCK cells preincubated for 1 hr followed by infection measured after 19 to 20 hrs by galactosidase-based fluorescence assay and peroxidase-based chromogenic assay; assay type: functional, organism-based
Influenza A virus [3] = assay: Antiviral activity against Influenza A virus A/Yamaguchi/20/06(H1N1) infected in dog AX4 cells preincubated for 1 hr followed by infection measured after 19 to 20 hrs by galactosidase-based fluorescence assay and peroxidase-based chromogenic assay; assay type: functional, organism-based
Influenza A virus [4] = assay: Antiviral activity against Influenza A virus (A/Aichi/75/2008(H3N2)) infected in dog AX4 cells preincubated for 1 hr followed by infection measured after 19 to 20 hrs by galactosidase-based fluorescence assay and peroxidase-based chromogenic assay; assay type: functional, organism-based
Influenza A virus [5] = assay: Antiviral activity against Influenza A virus (A/Aichi/102/2008(H3N2)) infected in dog AX4 cells preincubated for 1 hr followed by infection measured after 19 to 20 hrs by galactosidase-based fluorescence assay and peroxidase-based chromogenic assay; assay type: functional, organism-based
Influenza A virus [6] = assay: Antiviral activity against Influenza A virus (A/duck/Tsukuba/67/2005(H1N1)) infected in MDCK cells preincubated for 1 hr followed by infection measured after 19 to 20 hrs by galactosidase-based fluorescence assay and peroxidase-based chromogenic assay; assay type: functional, organism-based
Influenza A virus [7] = assay: Antiviral activity against Influenza A virus (A/duck/Tsukuba/394/2005(H5N3)) infected in MDCK cells preincubated for 1 hr followed by infection measured after 19 to 20 hrs by galactosidase-based fluorescence assay and peroxidase-based chromogenic assay; assay type: functional, organism-based
Influenza A virus [8] = assay: Antiviral activity against Influenza A virus A/duck/Chiba/13/06(H12N5) infected in MDCK cells preincubated for 1 hr followed by infection measured after 19 to 20 hrs by galactosidase-based fluorescence assay and peroxidase-based chromogenic assay; assay type: functional, organism-based
Influenza A virus [9] = assay: Antiviral activity against Influenza A virus (A/duck/Tsukuba/20/2007(H8N4)) infected in MDCK cells preincubated for 1 hr followed by infection measured after 19 to 20 hrs by galactosidase-based fluorescence assay and peroxidase-based chromogenic assay; assay type: functional, organism-based
Influenza A virus [10] = assay: Antiviral activity against Influenza A virus A/duck/Tsukuba/441/05(H11N9) infected in MDCK cells preincubated for 1 hr followed by infection measured after 19 to 20 hrs by galactosidase-based fluorescence assay and peroxidase-based chromogenic assay; assay type: functional, organism-based
Influenza A virus [11] = assay: Antiviral activity against Influenza A virus (A/duck/Tsukuba/700/2007(H7N7)) infected in MDCK cells preincubated for 1 hr followed by infection measured after 19 to 20 hrs by galactosidase-based fluorescence assay and peroxidase-based chromogenic assay; assay type: functional, organism-based
Influenza A virus [12] = assay: Antiviral activity against Influenza A virus (A/duck/Shiga/8/2004(H4N6)) infected in MDCK cells preincubated for 1 hr followed by infection measured after 19 to 20 hrs by galactosidase-based fluorescence assay and peroxidase-based chromogenic assay; assay type: functional, organism-based
Influenza A virus [13] = assay: Antiviral activity against Influenza A virus (A/duck/Tsukuba/28/2006(H3N8)) infected in MDCK cells preincubated for 1 hr followed by infection measured after 19 to 20 hrs by galactosidase-based fluorescence assay and peroxidase-based chromogenic assay; assay type: functional, organism-based
Influenza A virus [14] = assay: Antiviral activity against Influenza A virus A/Kitakyushu/10/06(H1N1) infected in dog AX4 cells preincubated for 1 hr followed by infection measured after 19 to 20 hrs by galactosidase-based fluorescence assay and peroxidase-based chromogenic assay; assay type: functional, organism-based
Influenza A virus [15] = assay: Antiviral activity against Influenza A virus (A/duck/Tsukuba/28/2005(H6N2)) infected in MDCK cells preincubated for 1 hr followed by infection measured after 19 to 20 hrs by galactosidase-based fluorescence assay and peroxidase-based chromogenic assay; assay type: functional, organism-based
Influenza A virus [16] = assay: Antiviral activity against Influenza A virus (A/Narita/1/2009(H1N1)) infected in dog AX4 cells preincubated for 1 hr followed by infection measured after 19 to 20 hrs by galactosidase-based fluorescence assay and peroxidase-based chromogenic assay; assay type: functional, organism-based
Sialidase-4 [17] = target: T1, Sialidase-4 (Homo sapiens, UniProt Q8WWR8); assay: Inhibition of human Neu4 expressed in HEK293T cells using GM3 as substrate incubated for 30 mins by HPLC analysis; assay type: cell-based, HEK-293T
T1 sequence (Q8WWR8 whole entry): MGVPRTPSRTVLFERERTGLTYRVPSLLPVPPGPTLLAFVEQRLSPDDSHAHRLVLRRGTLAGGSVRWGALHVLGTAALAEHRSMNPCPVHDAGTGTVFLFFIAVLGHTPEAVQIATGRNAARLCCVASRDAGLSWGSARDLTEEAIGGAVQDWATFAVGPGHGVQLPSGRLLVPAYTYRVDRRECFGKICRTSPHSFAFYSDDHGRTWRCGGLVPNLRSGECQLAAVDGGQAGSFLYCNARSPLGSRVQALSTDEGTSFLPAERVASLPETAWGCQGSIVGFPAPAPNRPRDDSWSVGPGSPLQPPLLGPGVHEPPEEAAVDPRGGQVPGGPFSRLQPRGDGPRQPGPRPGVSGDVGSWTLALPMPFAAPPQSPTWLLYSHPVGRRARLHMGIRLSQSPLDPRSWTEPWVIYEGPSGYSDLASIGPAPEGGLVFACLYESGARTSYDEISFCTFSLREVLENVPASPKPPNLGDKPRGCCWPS

MDCK = assay: Cytotoxicity against MDCK cells at 0.064 to 1000 uM incubated for 24 hrs by cell counting analysis; assay type: cell-based, Canis lupus familiaris; details: dog
Sialidase-3 = target: T2, Sialidase-3 (Homo sapiens, UniProt Q9UQ49); assay: Inhibition of human Neu3 expressed in HEK293T cells using GM3 as substrate incubated for 30 mins by HPLC analysis; assay type: cell-based, HEK-293T
T2 sequence (Q9UQ49 whole entry): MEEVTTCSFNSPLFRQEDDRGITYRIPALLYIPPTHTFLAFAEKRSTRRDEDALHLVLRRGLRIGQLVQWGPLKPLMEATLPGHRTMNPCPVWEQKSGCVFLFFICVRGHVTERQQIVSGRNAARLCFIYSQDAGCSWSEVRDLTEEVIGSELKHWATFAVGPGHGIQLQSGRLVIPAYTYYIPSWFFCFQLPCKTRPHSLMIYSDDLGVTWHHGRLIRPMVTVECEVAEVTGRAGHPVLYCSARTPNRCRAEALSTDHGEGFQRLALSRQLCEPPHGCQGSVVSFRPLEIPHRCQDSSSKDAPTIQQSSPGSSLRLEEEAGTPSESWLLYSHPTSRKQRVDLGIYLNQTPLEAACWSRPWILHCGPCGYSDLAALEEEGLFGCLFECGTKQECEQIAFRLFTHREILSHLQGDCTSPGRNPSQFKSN

[18] = Cytotoxicity against dog AX4 cells at 0.064 to 1000 uM incubated for 24 hrs by cell counting analysis; assay type: cell-based, Canis lupus familiaris; details: ax4, 24 h
Sialidase-4 [19] = target: T1, Sialidase-4; assay: Inhibition of human Neu4 expressed in HEK293T cells using 4MU-Neu5Ac as substrate incubated for 30 mins by HPLC analysis; assay type: cell-based, HEK-293T
Sialidase-1 = Sialidase-1 (Homo sapiens, UniProt Q99519); assay: Inhibition of human Neu1 expressed in HEK293T cells using 4MU-Neu5Ac as substrate incubated for 30 mins by HPLC analysis; assay type: cell-based, HEK-293T
Neuraminidase [20] = target: T3, Neuraminidase (Influenza A virus, UniProt B4URF0); assay: Inhibition of Influenza A virus (A/duck/Tsukuba/394/2005(H5N3)) neuraminidase N3 activity using 4MU-Neu5Ac as substrate preincubated for 15 mins followed by substrate addition measured after 15 mins by fluorescence analysis
Neuraminidase [21] = target: T3, Neuraminidase; assay: Inhibition of Influenza A virus (A/duck/Tsukuba/67/2005(H1N1)) neuraminidase N1 activity using 4MU-Neu5Ac as substrate preincubated for 15 mins followed by substrate addition measured after 15 mins by fluorescence analysis
Neuraminidase [22] = target: T3, Neuraminidase; assay: Inhibition of Influenza A virus (A/duck/Tsukuba/28/2005(H6N2)) neuraminidase N2 activity using 4MU-Neu5Ac as substrate preincubated for 15 mins followed by substrate addition measured after 15 mins by fluorescence analysis

T3 sequence (B4URF0 whole entry): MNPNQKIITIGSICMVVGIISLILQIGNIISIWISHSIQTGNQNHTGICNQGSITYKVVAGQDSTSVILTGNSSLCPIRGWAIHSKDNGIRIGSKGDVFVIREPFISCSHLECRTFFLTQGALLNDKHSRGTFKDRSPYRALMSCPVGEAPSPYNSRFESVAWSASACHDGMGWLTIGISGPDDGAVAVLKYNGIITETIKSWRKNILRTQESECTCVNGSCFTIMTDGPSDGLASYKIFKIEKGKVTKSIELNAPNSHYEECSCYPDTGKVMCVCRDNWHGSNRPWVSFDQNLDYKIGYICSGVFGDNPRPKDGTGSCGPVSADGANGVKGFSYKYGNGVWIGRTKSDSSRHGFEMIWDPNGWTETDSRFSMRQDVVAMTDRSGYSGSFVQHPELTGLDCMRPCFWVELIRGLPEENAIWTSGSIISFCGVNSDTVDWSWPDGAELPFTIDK

| SMILES | IC50 (Influenza A virus [1]) [nM] | IC50 (Influenza A virus [2]) [nM] | IC50 (Influenza A virus [3]) [nM] | IC50 (Influenza A virus [4]) [nM] | IC50 (Influenza A virus [5]) [nM] | IC50 (Influenza A virus [6]) [nM] | IC50 (Influenza A virus [7]) [nM] | IC50 (Influenza A virus [8]) [nM] | IC50 (Influenza A virus [9]) [nM] | IC50 (Influenza A virus [10]) [nM] | IC50 (Influenza A virus [11]) [nM] | IC50 (Influenza A virus [12]) [nM] | IC50 (Influenza A virus [13]; Influenza A virus, MDCK) [nM] | IC50 (Influenza A virus [14]) [nM] | IC50 (Influenza A virus [15]) [nM] | IC50 (Influenza A virus [16]) [nM] | IC50 (Sialidase-4 [17]) [µM] | Activity (MDCK) | IC50 (Sialidase-3) [µM] | IC50 (Sialidase-1) [mM] | further results |
| --- | --- | --- | --- | --- | --- | --- | --- | --- | --- | --- | --- | --- | --- | --- | --- | --- | --- | --- | --- | --- | --- |
| CCC(CC)OC[C@@H]1CC(C(=O)O)=C[C@H](N)[C@H]1NC(C)=O | 0.3 | 28.2 | 1.71 | 0.07 | 0.04 | 7.58 | 2.28 | 3.64 | 5 | 12.9 | 4.74 | 0.87 | 5.51 | 3910 | 0.85 | 0.28 | – | – | – | – | – |
| CC(=O)N[C@H]1[C@H]([C@H](O)[C@H](O)CNC(=O)C2CC2)OC(C(=O)O)=C[C@@H]1NC(=N)N.O=C(O)C(F)(F)F | 6.04 | 396 | 27.6 | 1.34 | 1.27 | 49 | 38.2 | 29.3 | 197 | 300 | 276 | 24.8 | 163 | 106 | 11.8 | 4.86 | > 1000 | Non-toxic | > 1000 | > 1 | Activity [18]: Non-toxic; IC50 (Sialidase-4 [19]): > 1000 µM |
| CCCCC(=O)NC[C@@H](O)[C@@H](O)[C@@H]1OC(C(=O)O)=C[C@H](NC(=N)N)[C@H]1NC(C)=O.O=C(O)C(F)(F)F | 136 | 8300 | 390 | 24.7 | 40.2 | 2250 | 5870 | 25600 | 5670 | 5500 | 5020 | 1100 | 47700 | 337 | 448 | 127 | > 700 | Non-toxic | > 1000 | > 0.7 | Activity [18]: Non-toxic; IC50 (Sialidase-4 [19]): > 700 µM |
| CC(=O)N[C@H]1[C@H]([C@H](O)[C@H](O)CO)OC(C(=O)O)=C[C@@H]1O [NEU5AC2EN] | – | – | – | – | – | – | – | – | – | – | – | – | – | – | – | – | – | – | 50 | – | IC50 (Neuraminidase [20]): 1000 nM; IC50 (Neuraminidase [21]): 1000 nM; IC50 (Neuraminidase [22]): 1000 nM |
| CC(=O)N[C@H]1[C@H]([C@H](O)[C@H](O)CO)OC(C(=O)O)=C[C@@H]1NC(=N)N [ZANAMIVIR] | – | 15.6 | – | – | – | 2.73 | 11.9 | 28.8 | 9.33 | 65 | 58.4 | 10.9 | – | – | 6.5 | – | – | – | – | > 1 | IC50 (Influenza A virus [13]; mdck): 16.7 nM |
